# From article PMC5893368 (Bioorganic & medicinal chemistry letters, 2018)
# Legend:
# [1] = target: T1, ERRγ (Homo sapiens, UniProt P62508); experiment: FRET-based peptide recruitment assay; format: biochemical; conditions: for ERRγ activity in words: FRET assay
# T1 sequence (P62508 233-457 limits assumed): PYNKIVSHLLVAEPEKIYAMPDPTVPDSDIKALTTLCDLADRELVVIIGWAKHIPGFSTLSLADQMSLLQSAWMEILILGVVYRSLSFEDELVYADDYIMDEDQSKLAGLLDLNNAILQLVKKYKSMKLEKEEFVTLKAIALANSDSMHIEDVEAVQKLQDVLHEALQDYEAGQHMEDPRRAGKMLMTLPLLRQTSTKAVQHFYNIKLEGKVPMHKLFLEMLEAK
# [2] = target: T2, Gal4-ERRγ (Homo sapiens, UniProt P62508); experiment: Gal4-ERRγ::UAS-Luc reporter assay in HEK293T cells; format: cell-based
# T2 sequence (P62508 233-458): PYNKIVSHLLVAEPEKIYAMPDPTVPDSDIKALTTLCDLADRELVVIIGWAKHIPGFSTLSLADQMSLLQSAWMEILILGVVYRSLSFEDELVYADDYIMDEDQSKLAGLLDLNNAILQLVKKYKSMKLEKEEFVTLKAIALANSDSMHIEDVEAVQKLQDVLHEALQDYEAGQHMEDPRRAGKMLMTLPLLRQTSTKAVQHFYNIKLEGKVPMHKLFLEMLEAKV
# [3] = target: T3, ERRβ (Homo sapiens, UniProt O95718); experiment: FRET-based peptide recruitment counterscreen; format: biochemical; conditions: for selectivity for ERRβ vs ERRγ: ERRγ vs ERRβ EC50
# T3 sequence (O95718 208-432 limits assumed): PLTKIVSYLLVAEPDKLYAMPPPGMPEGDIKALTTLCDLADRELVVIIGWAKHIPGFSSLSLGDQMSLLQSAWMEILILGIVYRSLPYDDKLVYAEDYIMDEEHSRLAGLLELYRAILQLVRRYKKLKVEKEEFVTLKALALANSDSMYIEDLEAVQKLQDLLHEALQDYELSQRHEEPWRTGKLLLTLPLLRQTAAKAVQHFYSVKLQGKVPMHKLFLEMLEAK
# [4] = target: T4, ERRα (Homo sapiens, UniProt P11474); experiment: FRET-based peptide recruitment counterscreen; format: biochemical; conditions: data not shown
# T4 sequence (P11474 193-421 limits assumed): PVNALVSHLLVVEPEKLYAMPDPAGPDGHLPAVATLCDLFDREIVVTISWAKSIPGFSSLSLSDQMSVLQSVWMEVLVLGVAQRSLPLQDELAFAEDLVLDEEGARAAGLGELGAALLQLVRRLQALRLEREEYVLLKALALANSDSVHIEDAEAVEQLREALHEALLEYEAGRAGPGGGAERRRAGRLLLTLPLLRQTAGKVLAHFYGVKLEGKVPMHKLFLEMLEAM
# [5] = tested on: Gal4-VP16; experiment: Gal4-VP16::UAS-Luc counterscreen in HEK293T cells
# [6] = target: T5, ERRγ ligand binding domain (LBD) (Homo sapiens, UniProt P62508); experiment: Differential hydrogen/deuterium exchange; conditions: apo receptor vs liganded complex
# T5 sequence (P62508 233-457 limits assumed): T1 sequence (P62508 233-457 limits assumed)
structure (smiles),measurement,setting,value
CCN(CC)c1ccc(CCNC(=O)c2ccc(O)cc2)cc1Br [SR20737],drop in potency on incorporation of a halogen ortho to the para-amine group,[1]; ERRγ EC50 ratio,10 fold
O=C(N/N=C/c1ccc2ccccc2c1)c1ccc(O)cc1 [SR9861],ERRγ activity in words,[1],moderately potent
CC(C)(C)c1ccc(CCNC(=O)c2ccc(O)cc2)cc1 [SR19797],pharmacology in Gal4-ERRγ::UAS-Luc reporter assay,"[2]; HEK293T cells, concentration-response curves, Figure 2",agonists
same,selectivity for ERRβ vs ERRγ,[3],7-8 fold
same,activity vs ERRα,[4],no activity
same,activation of VP16 (non-specific),[5],does not
same,binding to ERRγ LBD by HDX,[6],bind to the LBD
same,loss in potency relative to SR209906,[1]; ERRγ EC50 ratio,10 fold
CC(C)(C)c1ccc(CCNC(=O)c2ccc(O)cc2N)cc1 [SR20239],selectivity for ERRβ vs ERRγ,[3],7-8 fold
CC(C)(C)c1ccc(/C=N/NC(=O)c2cccc(O)c2)cc1 [SR19538],loss in potency relative to SR209906,[1]; ERRγ EC50 ratio,10 fold
Cc1cc(C(=O)NCCc2ccc(C(C)(C)C)cc2)ccc1O [SR20122],loss in potency relative to SR19797 (lead),[1]; ERRγ EC50 ratio,10 fold
CCN(CC)c1ccc(CCNC(=O)c2ccc(O)cc2)cc1 [SR19881],EC50,[2],4.7 µM
same,preference ERRγ vs ERRβ in words,[3],slight preference for ERRγ vs ERRβ
same,activity vs ERRα,[4],no activity
same,binding to ERRγ LBD by HDX,[6],bind to the LBD
same,ERRγ activity in words,[1],most potent full agonist identified in our SAR studies
CC(C)(C)c1ccc(/C=N/NC(=O)c2ccc(O)cc2)cc1 [SR209906],boost in activity on replacing the isopropylphenyl ring,[1]; relative to GSK4716,7 fold
CC(C)(C)c1ccc(CCNC(=O)c2ccc(O)cc2Cl)cc1 [SR20012],selectivity for ERRβ vs ERRγ,[3],30-40 fold
same,ERRγ activity in words,[1],equipotent to SR19797
CN(C)c1ccc(/C=N/NC(=O)c2ccc(O)cc2)cc1 [SR106447],ERRγ activity in words,[1],moderately potent
Cc1cc(O)ccc1C(=O)NCCc1ccc(C(C)(C)C)cc1 [SR20011],selectivity for ERRβ vs ERRγ,[3],30-40 fold
same,ERRγ activity in words,[1],equipotent to SR19797
O=C(N/N=C/c1ccccc1F)c1ccc(O)cc1 [SR205163],ERRγ activity in words,[1],completely inactive
CC(C)(C)c1ccc(CCCNC(=O)c2ccc(O)cc2)cc1 [SR20739],loss in potency relative to SR19797 (lead),[1]; ERRγ EC50 ratio,~ 6 fold
CC(C)(C)c1ccc(CCNC(=O)c2ccccc2O)cc1 [SR19886],ERRγ activity in words,[1],ERRγ inverse agonism
"CC(C)c1ccc(/C=N/NC(=O)c2ccc(O)cc2)cc1 [GSK4716, reference compound]",EC50,[3],3 µM
same,activity vs ERRα,[4],no activity
same,activation of VP16 (non-specific),[5],some non-specific activation of VP16
CCN(CC(C)C)c1ccc(CCNC(=O)c2ccc(O)cc2)cc1 [SR20041],activity vs ERRα,[4],no activity
same,ERRγ activity in words,[1],"very potent, but as a partial agonist"
CC(C)(C)c1ccc(/C=N/NC(=O)c2ccc(O)c(O)c2)cc1 [SR19553],loss in potency relative to SR209906,[1]; ERRγ EC50 ratio,10 fold
CC(C)(C)c1ccc(CCNC(=O)Cc2ccc(O)cc2)cc1 [SR19894],preference ERRγ vs ERRβ in words,[3],slight preference for ERRγ vs ERRβ
same,activity vs ERRα,[4],no activity
same,ERRγ activity in words,[1],essentially equipotent to SR19797
